Reference: patent US8969387B2, “Pyrrole compounds” (Takeda Pharmaceutical Company Limited, priority 2008, dated 2015)
Structures can show the parent of a compound that is named as a salt.

Tested on: Caspase-3/7 activity in HepG2 cells
Assay: Caspase-3/7 activity test
Assay type: cell-based, human
Conditions: HepG2, 100 μM, one day; relative to Staurosporine maximum (100%) and no test reagent (0%)
Protocol: Human liver cancer-derived cell line HepG2 (ATCC No. HB-8065) was passaged using Dulbecco's Modified Eagle medium (DMEM; Invitrogen) containing 10% fetal bovine serum (FBS; TRACE SCIENTIFIC LTD.), 1 mmol/L sodium pyruvate (Invitrogen), 2 mmol/L L-glutamine (Invitrogen), 50 IU/mL penicillin (Invitrogen) and 50 μg/mL streptomycin (Invitrogen) at 5% CO2, 37° C. The test reagent was prepared with DMSO to 10 mM, and further diluted with DMEM medium containing 0.5% FBS, 1 mmol/L sodium pyruvate, 2 mmol/L L-glutamine, 50 IU/mL penicillin and 50 μg/mL streptomycin to a final concentration of DMSO of 0.1%. HepG2 (2×10^4 cells/well) was cultured on a 96 well white plate (Costar) with the test reagent at 5% CO2, 37° C. After culture for one day, the intracellular ATP content was measured using ATPLite™ (PerkinElmer Life Sciences). The results are shown in Table 4 (n23, average value±SD) as a relative value (%) to control (without addition of drug).
The Caspase-3/7 activity in the cells cultured for one day by a method similar to that in Experimental Example 3 was measured using Caspase-Glo 3/7 Assay (Promega). The results are shown in Table 4 (n≧3, average value SD) as relative activity (%) of each reagent based on the maximum value of Caspase-3/7 activity when exposed to Staurosporine (100%), and the activity without addition of a test reagent (0%).

`CNCc1cn(S(=O)(=O)c2cc(C)ccn2)c(-c2cccnc2F)c1F` [Example 2, 1-{4-Fluoro-5-(2-fluoropyridin-3-yl)-1-[(4-methylpyridin-2-yl)sulfonyl]-1H-pyrrol-3-yl}-N-methylmethanamine hydrochloride] was tested, and the “Caspase-3/7 activity (%, 100 μM)” value was −1.1%.
With `CNCc1cn(S(=O)(=O)c2ccc(F)cn2)c(-c2cccnc2F)c1F` [Example 3, 1-{4-Fluoro-5-(2-fluoropyridin-3-yl)-1-[(5-fluoropyridin-2-yl)sulfonyl]-1H-pyrrol-3-yl}-N-methylmethanamine hydrochloride] the “Caspase-3/7 activity (%, 100 μM)” value was −0.5%.
`CNCc1cn(S(=O)(=O)c2ccc(OC)cn2)c(-c2cccnc2F)c1F` [Example 10, 1-{4-Fluoro-5-(2-fluoropyridin-3-yl)-1-[(5-methoxypyridin-2-yl)sulfonyl]-1H-pyrrol-3-yl}-N-methylmethanamine hydrochloride] was tested, and the “Caspase-3/7 activity (%, 100 μM)” value was 0.9%.
In the case of `CNCc1cn(S(=O)(=O)c2cncc(F)c2)c(-c2cccnc2F)c1F` [Example 5, 1-{4-Fluoro-5-(2-fluoropyridin-3-yl)-1-[(5-fluoropyridin-3-yl)sulfonyl]-1H-pyrrol-3-yl}-N-methylmethanamine hydrochloride], the “Caspase-3/7 activity (%, 100 μM)” value is reported as 0.3%.
In the case of `CNCc1cn(S(=O)(=O)c2cc(OC)ccn2)c(-c2cccnc2F)c1F` [Example 4, 1-{4-Fluoro-5-(2-fluoropyridin-3-yl)-1-[(4-methoxypyridin-2-yl)sulfonyl]-1H-pyrrol-3-yl}-N-methylmethanamine hydrochloride], the “Caspase-3/7 activity (%, 100 μM)” value is reported as −0.6%.
In the case of `CNCc1cn(S(=O)(=O)c2ccc(C)nc2)c(-c2cccnc2F)c1F` [Example 8, 1-{4-Fluoro-5-(2-fluoropyridin-3-yl)-1-[(6-methylpyridin-3-yl)sulfonyl]-1H-pyrrol-3-yl}-N-methylmethanamine 0.5 fumarate], the “Caspase-3/7 activity (%, 100 μM)” value is reported as 2.4%.
